Data reported in patent publication US5700804A, “Pharmaceutical compounds” (Xenova Limited, priority 1992, dated 1997).

Molecular target: PAI-1 (Homo sapiens, UniProt P05121)
Assay: PAI chromogenic substrate assay (first S2251 assay, tPA/plasminogen system)
Type: biochemical
Experimental: In this assay, a compound is incubated with PAI-1 prior to addition to the tPA assay system. Inhibition of PAI-1 results in the production of plasmin from plasminogen. In turn, plasmin cleaves the chromogenic substrate S2251 (Kabi Vitrum) producing pNA (p-nitroaniline) which is detected spectrophotometrically at 405 nm (K. Nilsson et al, Fibrinolysis (1987) 1, 163-168).
Compounds of formula (A) were tested in a PAI chromogenic substrate assay. In the first assay (K. Nilsson, Fibrinolysis (1987) 1, 163-168) each compound was incubated with PAI-1 prior to addition to the tPA assay system. […] In turn, the plasmin cleaved the chromogenic substrate S2251 (Kabi-Vitrum) producing pNA (p-nitroaniline) which was detected spectrophotometrically at 405 nm.

Sequence of PAI-1 (P05121 24-402): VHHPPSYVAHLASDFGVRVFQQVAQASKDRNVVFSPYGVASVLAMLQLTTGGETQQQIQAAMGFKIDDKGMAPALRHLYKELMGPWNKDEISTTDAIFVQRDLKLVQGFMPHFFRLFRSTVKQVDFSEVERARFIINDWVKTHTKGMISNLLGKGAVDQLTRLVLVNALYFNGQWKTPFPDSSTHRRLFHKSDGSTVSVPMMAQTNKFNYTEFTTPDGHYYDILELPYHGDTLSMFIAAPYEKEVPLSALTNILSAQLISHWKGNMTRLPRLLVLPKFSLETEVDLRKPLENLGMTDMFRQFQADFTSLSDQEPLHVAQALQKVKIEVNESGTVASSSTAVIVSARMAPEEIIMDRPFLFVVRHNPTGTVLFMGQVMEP

Row | Compound | Inhibition of PAI-1 in the first S2251 chromogenic substrate assay (Concentration 12.5 μm) [%] | Inhibition of PAI-1 in the first S2251 chromogenic substrate assay (Concentration 25 μm) [%] | Inhibition of PAI-1 in the first S2251 chromogenic substrate assay (Concentration 50 μm) [%] | Inhibition of PAI-1 in the first S2251 chromogenic substrate assay (Concentration 100 μm) [%] | Inhibition of PAI-1 in the first S2251 chromogenic substrate assay (Concentration 7.5 μm) [%] | Inhibition of PAI-1 in the first S2251 chromogenic substrate assay (Concentration 15 μm) [%] | Inhibition of PAI-1 in the first S2251 chromogenic substrate assay (Concentration 30 μm) [%] | Inhibition of PAI-1 in the first S2251 chromogenic substrate assay (Concentration 60 μm) [%] | Inhibition of PAI-1 in the first S2251 chromogenic substrate assay (Concentration 3.75 μm) [%] | Inhibition of PAI-1 in the first S2251 chromogenic substrate assay (Concentration 6.25 μm) [%]
1 | CSCc1ccc(/C=c2\[nH]c(=O)/c(=C/c3ccccc3)[nH]c2=O)cc1 [Compound 59, (3Z,6Z)-6-Benzylidene-3-(4-methylthiomethylbenzylidene)-2,5-piperazinedione] | 19 | 60 | 76 | 71 | – | – | – | – | – | –
2 | COc1ccc(/C=c2\[nH]c(=O)/c(=C/c3ccc(CS(C)(=O)=O)cc3)[nH]c2=O)cc1 [Compound 60, (3Z,6Z)-3-(4-Methoxybenzylidene)-6-(4-methylsulfonylmethylbenzylidene)-2,5-piperazinedione] | 1 | 25 | 52 | 62 | – | – | – | – | – | –
3 | CC(=O)SCc1cccc(/C=c2\[nH]c(=O)/c(=C/c3ccccc3)[nH]c2=O)c1 [Compound 61, (3Z,6Z)-6-Benzylidene-3-(3-thioacetoxymethylbenzylidene)-2,5-piperazinedione] | 26 | 69 | 88 | 83 | – | – | – | – | – | –
4 | COC(=O)c1cccc(/C=c2\[nH]c(=O)/c(=C/c3ccccc3)[nH]c2=O)c1 [Compound 62, 3-((3Z,6Z)-6-Benzylidene-2,5-dioxopiperazin-3-ylidene)methylbenzoic acid, methyl ester] | 36 | 13 | 33 | 83 | – | – | – | – | – | –
5 | COc1ccc(/C=c2\[nH]c(=O)/c(=C/c3cccc(CSC(C)=O)c3)[nH]c2=O)cc1 [Compound 63, (3Z,6Z)-3-(4-Methoxybenzylidene)-6-(3-thioacetoxymethylbenzylidene)-2,5-piperazinedione] | 36 | 44 | 70 | 69 | – | – | – | – | – | –
6 | O=c1[nH]/c(=C\c2cccc(CS)c2)c(=O)[nH]/c1=C\c1ccccc1 [Compound 64, (3Z,6Z)-6-Benzylidene-3-(3-mercaptomethylbenzylidene)-2,5-piperazinedione] | – | – | – | – | 17 | 63 | 87 | 100 | – | –
7 | CC(C)(C)OC(=O)NCc1ccc(/C=c2\[nH]c(=O)/c(=C/c3ccccc3)[nH]c2=O)cc1 [Compound 66] | 2 | 46 | 70 | 85 | – | – | – | – | – | –
8 | CC(=O)Nc1ccc(/C=c2\[nH]c(=O)/c(=C/c3ccc(CNC(=O)OC(C)(C)C)cc3)[nH]c2=O)cc1 [Compound 68, (3Z,6Z)-3-(4-Acetamidobenzylidene)-6-(4-tert-butoxycarbonylaminomethylbenzylidene)-2,5-piperazinedione] | 37 | 67 | 89 | 63 | – | – | – | – | – | –
9 | COc1ccc(/C=c2\[nH]c(=O)/c(=C/c3ccc(F)cc3F)[nH]c2=O)cc1 [Compound 69, (3Z,6Z)-3-(2,4-Difluorobenzylidene)-6-(4-methoxybenzylidene)-2,5-piperazinedione] | 3 | 14 | 40 | 68 | – | – | – | – | – | –
10 | COc1ccc(/C=c2\[nH]c(=O)/c(=C/c3ccccc3C(F)(F)F)[nH]c2=O)cc1 [Compound 70, (3Z,6Z)-3-(4-Methoxybenzylidene)-6-(2-trifluoromethylbenzylidene)-2,5-piperazinedione] | 4 | 21 | 78 | 94 | – | – | – | – | – | –
11 | CC(=O)Nc1ccc(/C=c2\[nH]c(=O)/c(=C/c3ccccc3F)[nH]c2=O)cc1 [Compound 71, (3Z,6Z)-3-(4-Acetamidobenzylidene)-6-(2-fluorobenzylidene)-2,5-piperazinedione] | – | – | – | – | 1 | 51 | 64 | 52 | 1 | –
12 | CC(=O)Nc1ccc(/C=c2\[nH]c(=O)/c(=C/c3ccc(F)cc3)[nH]c2=O)cc1 [Compound 72, (3Z,6Z)-3-(4-Acetamidobenzylidene)-6-(4-fluorobenzylidene)-2,5-piperazinedione] | – | – | – | – | 1 | 18 | 75 | 76 | 2 | –
13 | COc1ccc(/C=c2\[nH]c(=O)/c(=C/c3ccc(OC)cc3OC)[nH]c2=O)cc1 [Compound 73, (3Z,6Z)-3-(2,4-Dimethoxybenzylidene)-6-(4-methoxybenzylidene)-2,5-piperazinedione] | 2 | 1 | 3 | 50 | – | – | – | – | – | –
14 | CN(C)CCCOc1ccc(/C=c2\[nH]c(=O)/c(=C/c3ccccc3)[nH]c2=O)cc1 [Compound 75, (3Z,6Z)-6-Benzylidene-3-(4-(3-N,N-dimethylaminopropoxy)benzylidene)-2,5-piperazinedione] | 6 | 33 | 52 | 59 | – | – | – | – | – | 2
15 | CC(=O)SCc1ccc(/C=c2\[nH]c(=O)/c(=C/c3ccccc3)[nH]c2=O)cc1 [Compound 76, (3Z,6Z)-6-Benzylidene-3-(4-thioacetoxymethylbenzylidene)-2,5-piperazinedione] | 5 | 50 | 75 | 66 | – | – | – | – | – | 2
16 | CC(=O)Nc1ccc(/C=c2\[nH]c(=O)/c(=C/c3ccc(F)cc3F)[nH]c2=O)cc1 [Compound 77] | 61 | 80 | 66 | 33 | – | – | – | – | – | 1
17 | CC(=O)Nc1ccc(/C=c2\[nH]c(=O)/c(=C/c3ccccc3C(F)(F)F)[nH]c2=O)cc1 [Compound 78, (3Z,6Z)-6-(4-Acetamidobenzylidene)-3-(2-trifluoromethylbenzylidene)-2,5-piperazinedione] | 4 | 36 | 57 | 30 | – | – | – | – | – | 2
18 | CC(=O)Nc1ccc(/C=c2\[nH]c(=O)/c(=C/c3ccccc3Br)[nH]c2=O)cc1 [Compound 79, (3Z,6Z)-6-(4-Acetamidobenzylidene)-3-(2-bromobenzylidene)-2,5-piperazinedione] | 2 | 27 | 55 | 42 | – | – | – | – | – | 1
19 | COc1ccc(/C=c2\[nH]c(=O)/c(=C/c3ccc(C(N)=O)cc3)[nH]c2=O)cc1 [Compound 80, 4-[(3Z,6Z)-6-(4-Methoxybenzylidene)-2,5-dioxopiperazin-3-ylidene]methylbenzamide] | 0 | 1 | 9 | 53 | – | – | – | – | – | –
20 | COc1ccc(/C=c2\[nH]c(=O)/c(=C/c3ccc(OC(=O)C(C)(C)C)cc3)[nH]c2=O)cc1 [Compound 81, (3Z,6Z)-3-(4-Methoxybenzylidene)-6-(4-trimethylacetoxybenzylidene)-2,5-piperazinedione] | 0 | 1 | 1 | 64 | – | – | – | – | – | –
21 | CC(=O)Nc1ccc(/C=c2\[nH]c(=O)/c(=C/c3ccc(OC(=O)C(C)(C)C)cc3)[nH]c2=O)cc1 [Compound 82, (3Z,6Z)-3-(4-Acetamidobenzylidene)-6-(4-trimethylacetoxybenzylidene)-2,5-piperazinedione] | 1 | 1 | 3 | 80 | – | – | – | – | – | –
